Among the data in patent US7964624B1, “Inhibitors of serine proteases” (priority 2005, dated 2011) are Ki values, retold here.

The target in this test is T1, HCV NS3 protease domain (Hepatitis C virus genotype 1b, UniProt Q9WMX2).
T1 construct: The first 181 amino acids of NS3 (residues 1027-1207 of the viral polyprotein); hexa-histidine (C); made in house; host or cells: E. coli BL21/DE3 pLysS
Briefly: biochemical. Conditions: Enzyme Assay 1 (HCV NS3 Protease Domain Peptide Cleavage Assay) activity, apparent Ki class.

T1 sequence (Q9WMX2 1027-1207, other chains not shown): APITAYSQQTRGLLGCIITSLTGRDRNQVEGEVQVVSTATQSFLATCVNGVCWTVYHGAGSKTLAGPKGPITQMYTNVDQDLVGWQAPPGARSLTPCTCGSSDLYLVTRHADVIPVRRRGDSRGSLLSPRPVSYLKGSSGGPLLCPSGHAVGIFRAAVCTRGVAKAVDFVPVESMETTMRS

With `CCC[C@H](NC(=O)[C@@H]1C[C@]2(CC(C(=O)NCc3ccccc3)=NO2)CN1C(=O)[C@@H](NC(=O)O[C@H]1CCOC1)C(C)(C)C)C(=O)C(=O)NC1CC1` [Compound 341], the Ki was above 500 nM.
On to `CCC[C@H](NC(=O)[C@@H]1C[C@]2(CC(c3cccc(Cl)c3)=NO2)CN1C(=O)[C@@H](Nc1ncc(C)cc1[N+](=O)[O-])C(C)(C)C)C(=O)C(=O)NC1CC1` [Compound 345], for which the Ki was above 500 nM.
The same measure for `CCC[C@H](NC(=O)[C@@H]1C[C@]2(CC(c3cc(F)cc(C(F)(F)F)c3)=NO2)CN1C(=O)O[C@H]1CCOC1)C(=O)C(=O)NC1CC1` [Compound 348]: above 500 nM; for `CCC[C@H](NC(=O)[C@@H]1C[C@]2(CC(c3cccc(Cl)c3)=NO2)CN1C(=O)[C@@H](NC(=O)CC1CCCCC1)C(C)(C)C)C(=O)C(=O)Nc1cccc(C(C)=O)c1` [Compound 355]: above 500 nM.
In the case of `CCC[C@H](NC(=O)[C@@H]1C[C@]2(CC(c3cccc(Cl)c3)=NO2)CN1C(=O)[C@@H](NC(=O)OCc1ccncc1)C(C)(C)C)C(=O)C(=O)NC1CC1` [Compound 357] it was 100 to 500 nM; in that of `C=C[C@@H]1C[C@]1(NC(=O)[C@@H]1C[C@]2(CC(c3cccc(Cl)c3)=NO2)CN1C(=O)[C@@H](NC(=O)CC1CCOCC1)C(C)(C)C)C(=O)NS(=O)(=O)C1CC1` [Compound 359], 100 to 500 nM.
Take `CCC[C@H](NC(=O)[C@@H]1C[C@]2(CC(c3cccc(Cl)c3)=NO2)CN1C(=O)[C@@H](NC(=O)CC1CCCCCC1)C(C)(C)C)C(=O)C(=O)NC1CC1` [Compound 360]: the Ki is above 500 nM.
The same measure for `CCC[C@H](NC(=O)[C@@H]1C[C@]2(CC(C(=O)c3ccc(Cl)cc3)=NO2)CN1C(=O)[C@@H](NC(=O)O[C@H]1CCOC1)C(C)(C)C)C(=O)C(=O)NC1CC1` [Compound 364]: above 500 nM; for `CCC[C@H](NC(=O)[C@@H]1C[C@]2(CC(c3ccccc3)=NO2)CN1C(=O)NCc1cc(OC)c(OC)c(OC)c1)C(=O)C(=O)NC1CC1` [Compound 367]: above 500 nM; for `CCC[C@H](NC(=O)[C@@H]1C[C@]2(CC(c3ccc(OC)cc3OC)=NO2)CN1C(=O)OCC1c2ccccc2-c2ccccc21)C(=O)C(=O)NC1CC1` [Compound 371]: 100 to 500 nM.
With `CCC[C@H](NC(=O)[C@@H]1C[C@]2(CC(c3cccc(Cl)c3)=NO2)CN1C(=O)[C@@H](NC(=O)OCCCc1ccccn1)C(C)(C)C)C(=O)C(=O)NC1CC1` [Compound 373], the Ki was in the range of 100 to 500 nM.
For the compound `CCC[C@H](NC(=O)[C@@H]1C[C@]2(CC(c3cccc(Cl)c3)=NO2)CN1C(=O)[C@@H](NC(=O)OC1CCOCC1)C(C)(C)C)C(=O)C(=O)NC1CC1` [Compound 374], the Ki was in the range of 100 to 500 nM.
Take `CCC[C@H](NC(=O)[C@@H]1C[C@]2(CC(c3ccc4c(c3)OCO4)=NO2)CN1C(=O)[C@@H](NC(=O)CC1CCOCC1)C(C)(C)C)C(=O)C(N)=O` [Compound 375]: the Ki is above 500 nM.
As for `CCC[C@H](NC(=O)[C@@H]1C[C@]2(CC(c3cccc(Cl)c3)=NO2)CN1C(=O)[C@@H](NC(=O)OCc1ccccn1)C(C)(C)C)C(=O)C(=O)NC1CC1` [Compound 378], the Ki lay within 100 to 500 nM.
In the case of `CCC[C@H](NC(=O)[C@@H]1C[C@]2(CC(c3cccc(Cl)c3)=NO2)CN1C(=O)[C@@H](NC(=O)NC(C)C)C(C)(C)C)C(=O)C(=O)NC1CC1` [Compound 379], the Ki was below 100 nM.
In the case of `CCC[C@H](NC(=O)[C@@H]1C[C@]2(CC(c3cccc(Cl)c3)=NO2)CN1C(=O)[C@@H](NC(=O)c1n[nH]c(=O)c2ccccc12)C(C)(C)C)C(=O)C(=O)NC1CC1` [Compound 381], the Ki is 100 to 500 nM.
Turning to `CCC[C@H](NC(=O)[C@@H]1C[C@]2(CC(CC)=NO2)CN1C(=O)[C@@H](NC(=O)OCc1ccccc1)C(C)(C)C)C(=O)C(=O)NC1CC1` [Compound 383], the Ki was above 500 nM.
On to `CCC[C@H](NC(=O)[C@@H]1C[C@]2(CC(c3ccc(C)cc3)=NO2)CN1C(=O)[C@@H](NC(=O)O[C@H]1CCOC1)C(C)(C)C)C(=O)C(=O)NC1CC1` [Compound 385], for which the Ki was above 500 nM.
For the compound `CCC[C@H](NC(=O)[C@@H]1C[C@]2(CC(c3cccc(Cl)c3)=NO2)CN1C(=O)[C@@H](NC(=O)O[C@H]1CO[C@H]2OCC[C@H]21)C(C)(C)C)C(=O)C(=O)NC1CC1` [Compound 387], the Ki was 100 to 500 nM.
Take `CCC[C@H](NC(=O)[C@@H]1C[C@]2(CC(c3cccc(Cl)c3)=NO2)CN1C(=O)[C@@H](NC(=O)OCCCc1cccnc1)C(C)(C)C)C(=O)C(=O)NC1CC1` [Compound 389]: the Ki is above 500 nM.
Regarding `CCC[C@H](NC(=O)[C@@H]1C[C@]2(CC(c3cccc(Cl)c3)=NO2)CN1C(=O)[C@@H](NC(=O)CC(C)(C)O)C(C)(C)C)C(=O)C(=O)NC1CC1` [Compound 392], the Ki fell in the range of 100 to 500 nM.
For `CCC[C@H](NC(=O)[C@@H]1C[C@]2(CC(c3cccc(Cl)c3)=NO2)CN1C(=O)[C@@H](NC(=O)C(F)c1ccccc1)C(C)(C)C)C(=O)C(=O)NC1CC1` (stereo partly drawn) [Compound 393], the Ki lay within 100 to 500 nM.
As to `CCCC1=NO[C@]2(C1)C[C@@H](C(=O)N[C@@H](CCC)C(=O)C(=O)NC1CC1)N(C(=O)[C@@H](NC(=O)[C@@H](NC(=O)c1cnccn1)C1CCCCC1)C(C)(C)C)C2` [Compound 400], the Ki is below 100 nM.
In the case of `CCC[C@H](NC(=O)[C@@H]1C[C@]2(CC(c3cccc(Cl)c3)=NO2)CN1C(=O)[C@@H](NC(=O)CC1=C(c2cccs2)CCC1=O)C(C)(C)C)C(=O)C(=O)NC1CC1` [Compound 402], the Ki was 100 to 500 nM.
Consider `CCC[C@H](NC(=O)[C@@H]1C[C@]2(CC(c3ccc(C(C)C)cc3)=NO2)CN1C(=O)O[C@H]1CCOC1)C(=O)C(=O)NC1CC1` [Compound 405], for which the Ki is above 500 nM.
For `CCC[C@H](NC(=O)[C@@H]1C[C@]2(CC(c3cccc(Cl)c3)=NO2)CN1C(=O)[C@@H](NC(=O)OCC)C(C)(C)C)C(=O)C(=O)NC1CC1` [Compound 407], the Ki lay in the range of 100 to 500 nM.
As to `CCC[C@H](NC(=O)[C@@H]1C[C@]2(CC(c3ccc(F)c(C)c3)=NO2)CN1C(=O)O[C@H]1CCOC1)C(=O)C(=O)NC1CC1` [Compound 413], the Ki is above 500 nM.
For the compound `CCC[C@H](NC(=O)[C@@H]1C[C@]2(CC(c3cc(F)c(F)c(F)c3)=NO2)CN1C(=O)O[C@H]1CCOC1)C(=O)C(=O)NC1CC1` [Compound 414], the Ki was above 500 nM.
For the compound `CC(C)(C)[C@H](NC(=O)OCc1ccccc1)C(=O)N1C[C@@]2(CC(c3ccc4c(c3)OCO4)=NO2)C[C@H]1C(=O)NC(CC1CCC1)C(=O)C(N)=O` (stereo partly drawn) [Compound 415], the Ki is 100 to 500 nM.
The same measure for `CCC[C@H](NC(=O)[C@@H]1C[C@]2(CC(c3ccc(F)cc3)=NO2)CN1C(=O)[C@@H](NC(=O)[C@@H](NC(=O)c1cnccn1)C(C)(C)C)C(C)(C)C)C(=O)C(=O)NC1CC1` [Compound 417]: below 100 nM; for `CCC[C@H](NC(=O)[C@@H]1C[C@]2(CC(c3cccc(Cl)c3)=NO2)CN1C(=O)C1CC1c1ccccc1)C(=O)C(=O)NC1CC1` (stereo partly drawn) [Compound 421]: above 500 nM; for `CCC[C@H](NC(=O)[C@@H]1C[C@]2(CC(c3ccc4c(c3)OCO4)=NO2)CN1C(=O)[C@@H](NC(=O)O[C@H]1CCOC1)C(C)(C)C)C(=O)C(N)=O` [Compound 422]: 100 to 500 nM.
Turning to `CCC[C@H](NC(=O)[C@@H]1C[C@@]2(CC(c3ccc(C)c(F)c3)=NO2)CN1C(=O)[C@@H](NC(=O)O[C@H]1CCOC1)C(C)(C)C)C(=O)C(=O)NC1CC1` [Compound 423], the Ki is above 500 nM.
